Key:
Assay in all cases: radiometric filter-binding kinase assay, Kinaseprofiler
[1] = target: BTK (human) (UniProt Q06187); conditions: ATP 200 µM
[2] = target: CAMK1D (human) (UniProt Q8IU85); conditions: compound 10.0 µM; ATP 15 µM
[3] = target: CAMK2D (human) (UniProt Q13557); conditions: compound 1.0 µM; ATP 10 µM
[4] = target: CDK2 CCNA2 (human) (UniProt P24941+P20248); conditions: ATP 45 µM
[5] = target: CDK2 CCNE1 (human) (UniProt P24941+P24864); conditions: ATP 120 µM
[6] = target: CDK3 CCNE1 (human) (UniProt Q00526+P24864); conditions: ATP 200 µM
[7] = target: CDK7 CCNH MNAT1 (human) (UniProt P50613+P51948+P51946); conditions: ATP 90 µM
CDK7 CCNH MNAT1 (human), sequence (P50613 whole entry, looked up): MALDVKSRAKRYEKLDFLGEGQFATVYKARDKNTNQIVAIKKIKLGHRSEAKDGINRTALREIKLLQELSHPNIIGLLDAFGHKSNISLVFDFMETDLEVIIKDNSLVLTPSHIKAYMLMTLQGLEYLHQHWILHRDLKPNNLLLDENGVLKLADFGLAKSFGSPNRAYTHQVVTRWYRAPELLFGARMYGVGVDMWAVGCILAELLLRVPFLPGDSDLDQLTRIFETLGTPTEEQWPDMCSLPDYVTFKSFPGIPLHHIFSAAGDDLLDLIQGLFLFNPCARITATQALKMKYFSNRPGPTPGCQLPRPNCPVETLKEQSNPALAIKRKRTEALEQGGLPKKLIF
CDK7 CCNH MNAT1 (human), sequence (P51946 whole entry, looked up): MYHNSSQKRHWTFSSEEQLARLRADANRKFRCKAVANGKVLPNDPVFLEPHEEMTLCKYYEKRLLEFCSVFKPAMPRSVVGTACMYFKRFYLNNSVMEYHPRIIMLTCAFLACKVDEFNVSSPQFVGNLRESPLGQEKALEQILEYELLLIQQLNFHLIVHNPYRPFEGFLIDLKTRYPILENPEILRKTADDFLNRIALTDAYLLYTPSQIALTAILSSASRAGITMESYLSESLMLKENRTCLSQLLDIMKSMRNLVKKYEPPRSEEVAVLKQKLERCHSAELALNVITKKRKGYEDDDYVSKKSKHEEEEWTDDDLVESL
CDK7 CCNH MNAT1 (human), sequence (P51948 whole entry, looked up): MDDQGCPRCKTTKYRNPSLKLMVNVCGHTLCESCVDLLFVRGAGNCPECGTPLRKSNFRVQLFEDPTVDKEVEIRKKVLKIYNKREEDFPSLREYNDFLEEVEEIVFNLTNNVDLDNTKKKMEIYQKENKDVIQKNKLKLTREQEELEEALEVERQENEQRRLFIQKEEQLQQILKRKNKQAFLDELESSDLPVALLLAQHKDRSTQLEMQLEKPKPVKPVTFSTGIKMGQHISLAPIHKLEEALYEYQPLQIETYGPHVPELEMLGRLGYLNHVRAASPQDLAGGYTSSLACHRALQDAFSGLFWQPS

[8] = target: DAPK2 (human) (UniProt Q9UIK4); conditions: compound 10.0 µM; ATP 10 µM
[9] = target: EPHA1 (human) (UniProt P21709); conditions: compound 10.0 µM; ATP 45 µM
[10] = target: FER (human) (UniProt P16591); conditions: compound 10.0 µM; ATP 70 µM
[11] = target: FGR (human) (UniProt P09769); conditions: compound 10.0 µM; ATP 45 µM
[12] = target: FYN (human) (UniProt P06241); conditions: compound 10.0 µM; ATP 70 µM
[13] = tested on: HIPK2 (human), Q9H2X6 [I471N]; conditions: compound 10.0 µM; ATP 10 µM
[14] = target: JAK3 JH1 catalytic (human) (UniProt P52333); conditions: ATP 10 µM
JAK3 JH1 catalytic (human), sequence (P52333 whole entry, looked up): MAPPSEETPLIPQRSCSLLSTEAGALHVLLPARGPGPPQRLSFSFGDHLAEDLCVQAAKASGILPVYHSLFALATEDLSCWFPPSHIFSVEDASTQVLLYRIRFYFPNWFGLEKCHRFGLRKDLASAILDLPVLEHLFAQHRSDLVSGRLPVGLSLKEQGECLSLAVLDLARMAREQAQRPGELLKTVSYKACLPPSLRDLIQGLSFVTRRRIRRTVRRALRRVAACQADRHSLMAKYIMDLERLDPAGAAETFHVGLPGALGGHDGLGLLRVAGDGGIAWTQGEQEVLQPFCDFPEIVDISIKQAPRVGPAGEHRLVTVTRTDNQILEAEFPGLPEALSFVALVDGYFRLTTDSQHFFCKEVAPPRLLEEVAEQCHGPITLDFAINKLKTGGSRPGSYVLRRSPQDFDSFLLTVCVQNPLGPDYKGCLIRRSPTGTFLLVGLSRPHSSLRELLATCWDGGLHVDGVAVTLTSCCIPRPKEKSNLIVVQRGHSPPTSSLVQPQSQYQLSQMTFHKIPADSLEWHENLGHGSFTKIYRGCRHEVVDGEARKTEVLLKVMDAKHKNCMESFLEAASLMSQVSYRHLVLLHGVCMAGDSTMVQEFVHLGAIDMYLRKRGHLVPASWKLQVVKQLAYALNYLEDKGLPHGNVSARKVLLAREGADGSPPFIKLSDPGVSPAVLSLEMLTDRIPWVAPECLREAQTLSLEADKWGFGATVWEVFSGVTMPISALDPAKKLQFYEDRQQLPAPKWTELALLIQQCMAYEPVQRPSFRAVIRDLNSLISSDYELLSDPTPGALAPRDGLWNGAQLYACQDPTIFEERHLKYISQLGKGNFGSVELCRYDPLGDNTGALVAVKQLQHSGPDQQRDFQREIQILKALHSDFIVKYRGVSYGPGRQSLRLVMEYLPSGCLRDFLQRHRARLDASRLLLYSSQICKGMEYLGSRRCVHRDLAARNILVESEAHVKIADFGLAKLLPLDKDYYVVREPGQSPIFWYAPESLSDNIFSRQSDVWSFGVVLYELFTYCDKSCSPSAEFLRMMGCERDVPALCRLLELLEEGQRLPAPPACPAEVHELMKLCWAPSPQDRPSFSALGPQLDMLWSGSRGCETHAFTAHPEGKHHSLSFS

[15] = target: MAP2K7 (human) (UniProt O14733); conditions: compound 10.0 µM; ATP 10 µM
[16] = target: MAP3K7 (human) (UniProt O43318); conditions: ATP 45 µM
MAP3K7 (human), sequence (O43318 whole entry, looked up): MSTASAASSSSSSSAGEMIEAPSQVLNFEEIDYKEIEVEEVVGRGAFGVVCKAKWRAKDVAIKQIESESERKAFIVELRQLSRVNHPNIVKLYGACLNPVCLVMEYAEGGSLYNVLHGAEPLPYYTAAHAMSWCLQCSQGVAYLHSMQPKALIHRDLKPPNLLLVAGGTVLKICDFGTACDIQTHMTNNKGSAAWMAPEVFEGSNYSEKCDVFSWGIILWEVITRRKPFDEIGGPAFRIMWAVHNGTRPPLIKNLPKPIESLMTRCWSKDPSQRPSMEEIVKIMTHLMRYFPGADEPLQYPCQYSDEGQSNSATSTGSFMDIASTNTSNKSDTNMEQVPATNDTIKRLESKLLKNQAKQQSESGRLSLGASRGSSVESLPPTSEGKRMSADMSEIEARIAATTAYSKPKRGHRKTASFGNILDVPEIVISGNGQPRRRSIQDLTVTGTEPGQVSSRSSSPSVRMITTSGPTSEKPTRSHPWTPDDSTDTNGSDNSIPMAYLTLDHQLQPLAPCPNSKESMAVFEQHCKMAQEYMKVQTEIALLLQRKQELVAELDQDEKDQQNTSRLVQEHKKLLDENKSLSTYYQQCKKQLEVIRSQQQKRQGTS

[17] = target: MAP3K9 (human) (UniProt P80192); conditions: compound 10.0 µM; ATP 45 µM
[18] = target: MAPK1 (human) (UniProt P28482); conditions: compound 10.0 µM; ATP 155 µM
[19] = target: MAPK10 (human) (UniProt P53779); conditions: ATP 10 µM
[20] = target: MAPK3 (human) (UniProt P27361); conditions: compound 10.0 µM; ATP 70 µM
[21] = target: MAPK8 (human) (UniProt P45983); conditions: ATP 45 µM
[22] = target: MARK2 (human) (UniProt Q7KZI7); conditions: compound 10.0 µM; ATP 15 µM
[23] = target: NTRK2 (human) (UniProt Q16620); conditions: ATP 90 µM
[24] = target: PAK4 (human) (UniProt O96013); conditions: compound 10.0 µM; ATP 10 µM
[25] = target: PAK6 (human) (UniProt Q9NQU5); conditions: ATP 10 µM
[26] = target: PIM2 (human) (UniProt Q9P1W9); conditions: compound 10.0 µM; ATP 15 µM
[27] = target: PRKAA1 PRKAB1 PRKAG1 (human) (UniProt P54619+Q13131+Q9Y478); conditions: ATP 45 µM
PRKAA1 PRKAB1 PRKAG1 (human), sequence (P54619 whole entry, looked up): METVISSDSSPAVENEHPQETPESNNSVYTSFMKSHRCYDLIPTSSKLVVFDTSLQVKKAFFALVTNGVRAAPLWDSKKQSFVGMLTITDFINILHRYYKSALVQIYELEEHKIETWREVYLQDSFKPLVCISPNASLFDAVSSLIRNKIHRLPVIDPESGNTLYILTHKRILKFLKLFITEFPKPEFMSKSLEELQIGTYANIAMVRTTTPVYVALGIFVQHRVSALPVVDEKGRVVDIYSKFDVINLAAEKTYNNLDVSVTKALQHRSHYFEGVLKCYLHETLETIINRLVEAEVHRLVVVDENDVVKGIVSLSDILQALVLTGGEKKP
PRKAA1 PRKAB1 PRKAG1 (human), sequence (Q13131 whole entry, looked up): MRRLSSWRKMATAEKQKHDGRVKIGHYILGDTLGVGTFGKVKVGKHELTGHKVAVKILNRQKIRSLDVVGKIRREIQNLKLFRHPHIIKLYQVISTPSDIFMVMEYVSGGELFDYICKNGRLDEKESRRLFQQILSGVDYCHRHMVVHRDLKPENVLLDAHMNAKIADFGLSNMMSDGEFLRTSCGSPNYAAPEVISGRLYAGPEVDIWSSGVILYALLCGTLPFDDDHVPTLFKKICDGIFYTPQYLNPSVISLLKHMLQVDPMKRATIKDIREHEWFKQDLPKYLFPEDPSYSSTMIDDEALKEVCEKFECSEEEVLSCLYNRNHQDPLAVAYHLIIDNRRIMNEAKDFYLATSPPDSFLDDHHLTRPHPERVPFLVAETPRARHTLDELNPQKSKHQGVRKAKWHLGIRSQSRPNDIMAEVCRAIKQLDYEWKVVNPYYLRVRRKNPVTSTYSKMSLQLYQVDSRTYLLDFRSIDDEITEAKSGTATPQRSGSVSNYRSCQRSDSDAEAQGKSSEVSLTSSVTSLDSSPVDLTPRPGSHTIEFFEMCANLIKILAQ
PRKAA1 PRKAB1 PRKAG1 (human), sequence (Q9Y478 whole entry, looked up): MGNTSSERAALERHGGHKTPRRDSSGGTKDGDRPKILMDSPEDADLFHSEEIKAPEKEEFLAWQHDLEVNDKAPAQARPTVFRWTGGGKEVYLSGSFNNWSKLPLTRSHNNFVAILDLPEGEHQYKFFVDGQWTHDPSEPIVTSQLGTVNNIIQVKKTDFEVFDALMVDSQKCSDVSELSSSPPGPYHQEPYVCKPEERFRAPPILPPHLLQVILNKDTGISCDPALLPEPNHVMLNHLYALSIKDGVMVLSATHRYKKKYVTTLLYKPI

[28] = tested on: PRKD1 (human), Q15139 [R135A]; conditions: compound 10.0 µM; ATP 45 µM
[29] = target: PRKD2 (human) (UniProt Q9BZL6); conditions: compound 10.0 µM; ATP 155 µM
[30] = target: PTK2B (human) (UniProt Q14289); conditions: compound 10.0 µM; ATP 90 µM
[31] = target: RPS6KA5 KD1 KD2 (human) (UniProt O75582); conditions: compound 10.0 µM; ATP 90 µM
[32] = target: STK24 (human) (UniProt Q9Y6E0); conditions: compound 10.0 µM; ATP 15 µM
[33] = target: TNK2 (human) (UniProt Q07912); conditions: ATP 70 µM
[34] = target: TSSK1B (human) (UniProt Q9BXA7); conditions: ATP 15 µM
TSSK1B (human), sequence (Q9BXA7 whole entry, looked up): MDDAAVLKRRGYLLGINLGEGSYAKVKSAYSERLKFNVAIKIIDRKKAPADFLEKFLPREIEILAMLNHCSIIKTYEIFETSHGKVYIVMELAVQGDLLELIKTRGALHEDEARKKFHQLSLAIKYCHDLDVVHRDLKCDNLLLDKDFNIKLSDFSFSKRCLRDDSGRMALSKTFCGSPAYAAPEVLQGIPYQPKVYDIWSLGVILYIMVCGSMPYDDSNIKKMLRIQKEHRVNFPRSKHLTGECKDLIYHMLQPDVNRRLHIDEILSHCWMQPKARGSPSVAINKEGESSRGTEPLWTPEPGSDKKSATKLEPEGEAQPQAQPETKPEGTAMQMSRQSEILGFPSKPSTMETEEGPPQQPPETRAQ

[35] = target: TSSK2 (human) (UniProt Q96PF2); conditions: compound 10.0 µM; ATP 15 µM

CDK2 CCNA2 (human), sequence (P20248 whole entry, looked up, other chains not shown): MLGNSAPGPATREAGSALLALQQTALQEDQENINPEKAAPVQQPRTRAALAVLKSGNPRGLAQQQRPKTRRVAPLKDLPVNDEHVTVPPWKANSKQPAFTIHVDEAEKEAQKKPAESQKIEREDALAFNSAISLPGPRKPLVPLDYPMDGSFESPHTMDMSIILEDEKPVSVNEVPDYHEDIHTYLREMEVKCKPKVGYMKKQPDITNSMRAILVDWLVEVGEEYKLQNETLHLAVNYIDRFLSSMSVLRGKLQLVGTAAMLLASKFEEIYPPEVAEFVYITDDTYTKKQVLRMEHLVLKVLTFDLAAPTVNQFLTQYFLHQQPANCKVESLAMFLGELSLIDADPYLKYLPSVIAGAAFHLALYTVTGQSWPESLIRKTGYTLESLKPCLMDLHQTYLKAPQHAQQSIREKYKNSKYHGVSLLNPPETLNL

COC(=O)[C@]1(O)C[C@@H]2O[C@@]1(C)n1c3ccccc3c3c4c(c5c6ccccc6n2c5c31)C(=O)NC4 was tested, and the residual activity ([1]; compound 1.0 µM) was -1%, the residual activity ([1]; compound 10.0 µM) was -1% and the residual activity [2] was 0%. For the same compound, the residual activity [3] was 0%, the residual activity ([4]; compound 1.0 µM) was 1% and the residual activity ([4]; compound 10.0 µM) was 0%. For the same compound, the residual activity ([5]; compound 1.0 µM) was 6%, the residual activity ([5]; compound 10.0 µM) was 0% and the residual activity ([6]; compound 1.0 µM) was 27%. It also gave a residual activity ([6]; compound 10.0 µM) of 2%, a residual activity ([7]; compound 1.0 µM) of 55% and a residual activity ([7]; compound 10.0 µM) of 16%. The residual activity [8] was -3%, the residual activity [9] was 0% and the residual activity [10] was 0%. It also gave a residual activity [11] of -1%, a residual activity [12] of 0% and a residual activity [13] of -1%. It also gave a residual activity ([14]; compound 1.0 µM) of 0%, a residual activity ([14]; compound 10.0 µM) of 0% and a residual activity [15] of 0%. The residual activity ([16]; compound 1.0 µM) was -1%, the residual activity ([16]; compound 10.0 µM) was -5% and the residual activity [17] was 0%. It also gave a residual activity [18] of -3%, a residual activity ([19]; compound 1.0 µM) of -3% and a residual activity ([19]; compound 10.0 µM) of -1%. For the same compound, the residual activity [20] was -1%, the residual activity ([21]; compound 1.0 µM) was -12% and the residual activity ([21]; compound 10.0 µM) was -20%. The residual activity [22] was -2%, the residual activity ([23]; compound 1.0 µM) was 0% and the residual activity ([23]; compound 10.0 µM) was 0%. The residual activity [24] was 0%, the residual activity ([25]; compound 1.0 µM) was 0% and the residual activity ([25]; compound 10.0 µM) was -1%. For the same compound, the residual activity [26] was -2%, the residual activity ([27]; compound 1.0 µM) was -1% and the residual activity ([27]; compound 10.0 µM) was 0%. The residual activity [28] was 0%, the residual activity [29] was 0% and the residual activity [30] was -1%. It also gave a residual activity [31] of 0%, a residual activity [32] of 0% and a residual activity ([33]; compound 1.0 µM) of 0%. The residual activity ([33]; compound 10.0 µM) was 0%, the residual activity ([34]; compound 1.0 µM) was -1% and the residual activity ([34]; compound 10.0 µM) was 0%. It also gave a residual activity [35] of 0%.
